From patent publication US10913736B2 (UNIVERSITY OF WASHINGTON, priority 2014, dated 2021)
“And” between values parts separate entries of the source, which are not always exact repeats. Equal values may be shown once. Read-outs that look alike come from different tables or passages of the source.

What was measured:
T. brucei = experiment: Growth inhibition assay of T. brucei cell cultures (Alamar Blue, 48 h); assay type: cell-based
MetRS (T. brucei) = MetRS (T. brucei) (Trypanosoma brucei brucei, UniProt Q38C91); experiment: MetRS (T. brucei) ATP depletion assay using Kinase-Glo; assay type: biochemical
Sequence of MetRS (T. brucei) (Q38C91 entry or part of it): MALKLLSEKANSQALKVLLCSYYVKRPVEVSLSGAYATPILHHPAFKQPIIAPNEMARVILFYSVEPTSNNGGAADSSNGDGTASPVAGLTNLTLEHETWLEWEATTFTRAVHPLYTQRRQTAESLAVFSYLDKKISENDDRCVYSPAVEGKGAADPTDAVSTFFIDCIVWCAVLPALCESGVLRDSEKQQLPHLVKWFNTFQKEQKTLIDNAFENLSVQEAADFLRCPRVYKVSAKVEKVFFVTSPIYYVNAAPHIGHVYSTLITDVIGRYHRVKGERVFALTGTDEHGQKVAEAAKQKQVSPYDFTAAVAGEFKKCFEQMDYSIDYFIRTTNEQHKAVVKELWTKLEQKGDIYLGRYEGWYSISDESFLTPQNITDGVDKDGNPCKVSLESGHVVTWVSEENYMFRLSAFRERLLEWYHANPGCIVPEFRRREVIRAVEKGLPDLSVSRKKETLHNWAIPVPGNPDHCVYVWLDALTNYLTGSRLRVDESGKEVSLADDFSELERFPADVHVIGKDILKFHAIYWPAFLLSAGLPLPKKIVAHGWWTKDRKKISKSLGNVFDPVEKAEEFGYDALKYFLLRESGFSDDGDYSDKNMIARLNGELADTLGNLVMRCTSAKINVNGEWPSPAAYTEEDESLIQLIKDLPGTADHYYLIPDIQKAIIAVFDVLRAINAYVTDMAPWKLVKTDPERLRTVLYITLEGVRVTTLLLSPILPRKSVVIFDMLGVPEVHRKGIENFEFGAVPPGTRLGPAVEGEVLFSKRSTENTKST

[1] = Trypanosoma brucei; read-out: B) T. brucei EC50

`Clc1cc(Cl)cc(CNCCNc2nc3ncc(Cl)cc3[nH]2)c1` [Compound 1850, [2-({6-chloro-1H-imidazo[4,5-b]pyridin-2-yl}amino)ethyl][(3,5-dichlorophenyl)methyl]amine] was tested, and the EC50 (T. brucei; [1]) was 3870 nM and the IC50 (MetRS (T. brucei)) was 385 nM.
`COC(=O)[C@H](Cc1ccc(Cl)cc1Cl)NC(=O)NCc1nc2ccccc2[nH]1` [Compound 1755, methyl (2S)-2-{[(1H-1,3-benzodiazol-2-ylmethyl)carbamoyl]amino}-3-(2,4-dichlorophenyl)propanoate] gave an EC50 (T. brucei; [1]) greater than 10000 nM and an IC50 (MetRS (T. brucei)) of 1390 nM.
`Fc1ccc2[nH]c(CCCNCc3cc(Cl)cc(Cl)c3)nc2n1` [Compound 1858, N-(3,5-dichlorobenzyl)-3-(5-fluoro-1H-imidazo[4,5-b]pyridin-2-yl)propan-1-amine] showed an EC50 (T. brucei; [1]) of 1890 nM and an IC50 (MetRS (T. brucei)) of 340 nM.
`Clc1cc(Cl)cc(CNCc2nc3ccc(Br)cc3[nH]2)c1` [Compound 1853, N-(3,5-dichlorobenzyl)(6-bromo-1H-benzo[d]imidazol-2-yl)methanamine] was tested, and the EC50 (T. brucei; [1]) was greater than 20000 nM and the IC50 (MetRS (T. brucei)) was greater than 10000 nM.
For `COC(=O)N(CCCNc1nc2ccc(F)nc2n1C(=O)OC)Cc1cc(Cl)cc(Cl)c1` [Compound 1965, methyl 3,5-dichlorobenzyl3-(3-(methoxycarbonyl)-5-fluoro-3H-imidazo[4,5-b]pyridin-2-ylamino)propylcarbamate], the EC50 (T. brucei; [1]) was 96.2 nM and the IC50 (MetRS (T. brucei)) was 345 nM and 322 nM.
Compound `O=C(COc1ccc(Cl)cc1Cl)NCc1nc2ccccc2[nH]1` [Compound 1671, N-(1H-1,3-benzodiazol-2-ylmethyl)-2-(2,4-dichlorophenoxy)acetamide] has an EC50 (T. brucei; [1]) greater than 20000 nM and an IC50 (MetRS (T. brucei)) of 1270 nM.
`CNCc1cc(Cl)cc(Cl)c1O/C=C/C(=O)NCc1nc2ccccc2[nH]1` [Compound 1779, (2E)-N-(1H-1,3-benzodiazol-2-ylmethyl)-3-{2,4-dichloro-6-[(methylamino)methyl]phenoxy}prop-2-enamide] was tested, and the EC50 (T. brucei; [1]) was greater than 20000 nM and the IC50 (MetRS (T. brucei)) was greater than 10000 nM.
`N[C@@H](COc1ccc(Cl)cc1Cl)C(=O)NCc1nc2ccccc2[nH]1` [Compound 1807, (S)—N-((1H-benzo[d]imidazol-2-yl)methyl)-3-(2,4-dichlorophenoxy)-2-aminopropanamide] gave an EC50 (T. brucei; [1]) of 3730 nM and an IC50 (MetRS (T. brucei)) of 1550 nM.
`CC(Cc1nc2cc(F)c(Cl)cc2[nH]1)NCc1cc(Cl)cc(Cl)c1` (stereo not shown) [Compound 1824, [1-(6-chloro-5-fluoro-1H-1,3-benzodiazol-2-yl)propan-2-yl][(3,5-dichlorophenyl)methyl]amine] was tested, and the EC50 (T. brucei; [1]) was 2240 nM and the IC50 (MetRS (T. brucei)) was 160 nM.
For `O=C(CNc1cc(Cl)cc(Cl)c1)NCc1nc2ccc(Cl)nc2[nH]1` [Compound 1990, N-({5-chloro-3H-imidazo[4,5-b]pyridin-2-yl}methyl)-2-[(3,5-dichlorophenyl)amino]acetamide], the EC50 (T. brucei; [1]) was 2040 nM and the IC50 (MetRS (T. brucei)) was 17 nM.
`O=C(NCc1cc(Cl)cc(Cl)c1)NCc1nc2ccc(Cl)nc2[nH]1` [Compound 1991, 3-({5-chloro-3H-imidazo[4,5-b]pyridin-2-yl}methyl)-1-[(3,5-dichlorophenyl)methyl]urea] was tested, and the EC50 (T. brucei; [1]) was 2070 nM and the IC50 (MetRS (T. brucei)) was 18 nM.
Compound `Clc1ccc(CN2CCC[C@H](c3nc4nc(Cl)ccc4[nH]3)C2)c(Cl)c1` [Compound 1869, (S)-5-chloro-2-(1-(2,4-dichlorobenzyl)piperidin-3-yl)-1H-imidazo[4,5-b]pyridine] has an EC50 (T. brucei; [1]) of 1700 nM and an IC50 (MetRS (T. brucei)) of 52 nM.
`Clc1cc(Cl)cc(CNCCSc2nc3nc(Cl)ccc3[nH]2)c1` [Compound 1896, [2-({5-chloro-1H-imidazo[4,5-b]pyridin-2-yl}sulfanyl)ethyl][(3,5-dichlorophenyl)methyl]amine] showed an EC50 (T. brucei; [1]) of 1400 nM and an IC50 (MetRS (T. brucei)) of 1050 nM.
`CC(=O)N(Cc1cc(Cl)cc(Cl)c1)C1CCCC(c2nc3cc(Cl)ccc3[nH]2)C1` (stereo not shown) [Compound 1861, N-(3-(5-chloro-1H-benzo[d]imidazol-2-yl)cyclohexyl)-N-(3,5-dichlorobenzyl)acetamide] gave an EC50 (T. brucei; [1]) of 4440 nM and an IC50 (MetRS (T. brucei)) of 1470 nM.
Compound `O=C(Nc1cc(Cl)cc(Cl)c1)N1CCCC(c2nc3cc(Cl)ccc3[nH]2)C1` (stereo not shown) [Compound 1759, 3-(5-chloro-1H-benzo[d]imidazol-2-yl)-N-(3,5-dichlorophenyl) piperidine-1-carboxamide] has an EC50 (T. brucei; [1]) greater than 10000 nM and an IC50 (MetRS (T. brucei)) greater than 10000 nM.
In the case of `Clc1cc(Cl)cc(CNCCc2nc3ccc(Cl)nc3[nH]2)c1` [Compound 1780, [2-(5-chloro-3H-imidazo[4,5-b]pyridin-2-yl)-ethyl]-(3,5-dichloro-benzyl)-amine], the EC50 (T. brucei; [1]) is reported as 1160 nM, the EC50 (T. brucei; read-out: B) T. brucei EC50) is reported as 1060 nM and the IC50 (MetRS (T. brucei)) is reported as 67 nM and 36 nM.
`CN(Cc1nc2ccccc2[nH]1)C(=O)OCCc1ccc(Cl)cc1Cl` [Compound 1728, 2-(2,4-dichlorophenyl)ethyl N-(1H-1,3-benzodiazol-2-ylmethyl)-N-methylcarbamate] was tested, and the EC50 (T. brucei; [1]) was greater than 20000 nM and the IC50 (MetRS (T. brucei)) was greater than 10000 nM.
Work on `CC(Cc1nc2ccc(Br)cc2[nH]1)NCc1cc(Cl)cc(Cl)c1` (stereo not shown) [Compound 1821, [1-(6-bromo-1H-1,3-benzodiazol-2-yl)propan-2-yl][(3,5-dichlorophenyl)methyl]amine] yielded an EC50 (T. brucei; [1]) of 1670 nM and an IC50 (MetRS (T. brucei)) of 54 nM.
With `O=C1CN(Cc2cccc(Cl)c2)CCN1Cc1nc2ccccc2[nH]1` [Compound 1736, 1-((1H-benzo[d]imidazol-2-yl)methyl)-4-(3-chlorobenzyl)piperazin-2-one] the EC50 (T. brucei; [1]) was greater than 20000 nM and the IC50 (MetRS (T. brucei)) was greater than 10000 nM.
`Clc1cc(Cl)cc(CNc2cccc(-c3nc4ccc(Cl)cc4[nH]3)c2)c1` [Compound 1952, 3-(6-chloro-1H-1,3-benzodiazol-2-yl)-N-[(3,5-dichlorophenyl)methyl]aniline] was tested, and the EC50 (T. brucei; [1]) was 187 nM, the EC50 (T. brucei; read-out: B) T. brucei EC50) was 367 nM and the IC50 (MetRS (T. brucei)) was 2280 nM and 1740 nM.
Compound `O=C(Cc1nc2ccc(Cl)cc2[nH]1)NCc1cc(Cl)cc(Cl)c1` [Compound 1804, N-(3,5-dichlorobenzyl)-2-(6-chloro-1H-benzo[d]imidazol-2-yl)acetamide] has an EC50 (T. brucei; [1]) of 15000 nM and an IC50 (MetRS (T. brucei)) of 389 nM.
In the case of `CC(Cc1nc2cc(Cl)c(Cl)cc2[nH]1)NCc1cc(Cl)cc(Cl)c1` (stereo not shown) [Compound 1822, [1-(5,6-dichloro-1H-1,3-benzodiazol-2-yl)propan-2-yl][(3,5-dichlorophenyl)methyl]amine], the EC50 (T. brucei; [1]) is reported as 3570 nM and the IC50 (MetRS (T. brucei)) is reported as 1490 nM.
With `Clc1cc(Cl)cc(NCCNCc2nc3ccc(Cl)nc3[nH]2)c1` [Compound 1994, ({5-chloro-3H-imidazo[4,5-b]pyridin-2-yl}methyl)({2-[(3,5-dichlorophenyl)amino]ethyl})amine] the EC50 (T. brucei; [1]) was 1410 nM and the IC50 (MetRS (T. brucei)) was 59 nM.
For `Clc1cc(Cl)cc(CN2CCC[C@H](c3nc4cc(Cl)ccc4[nH]3)C2)c1` [Compound 1813, (S)-5-chloro-2-(1-(3,5-dichlorobenzyl)piperidin-3-yl)-1H-benzo[d]imidazole], the EC50 (T. brucei; [1]) was 1380 nM and the IC50 (MetRS (T. brucei)) was 747 nM.
`O=C(Cc1cc(Cl)cc(Cl)c1)NCc1nc2ncc(Cl)cc2[nH]1` [Compound 1877, N-({6-chloro-1H-imidazo[4,5-b]pyridin-2-yl}methyl)-2-(3,5-dichlorophenyl)acetamide] was tested, and the EC50 (T. brucei; [1]) was 8680 nM and the IC50 (MetRS (T. brucei)) was 191 nM.
With `Clc1cc(Cl)c(Cl)c(CN[C@H]2CCCN(c3nc4nc(Cl)ccc4[nH]3)C2)c1` [Compound 1902, (S)-1-(5-chloro-1H-imidazo[4,5-b]pyridin-2-yl)-N-(2,3,5-trichlorobenzyl)piperidin-3-amine] the EC50 (T. brucei; [1]) was 354 nM and the IC50 (MetRS (T. brucei)) was 18 nM.
Work on `CCOc1c(Cl)cc(Cl)cc1CN[C@H]1CCCN(c2nc3nc(Cl)ccc3[nH]2)C1` [Compound 1920, (S)-1-(5-chloro-1H-imidazo[4,5-b]pyridin-2-yl)-N-(3,5-dichloro-2-ethoxybenzyl)piperidin-3-amine] yielded an EC50 (T. brucei; [1]) of 111 nM and an IC50 (MetRS (T. brucei)) of 16 nM.
In the case of `Clc1ccc(CNC2CCCN(c3nc4nc(Cl)ccc4[nH]3)C2)c(Cl)c1` (stereo not shown) [Compound 1857, 1-(5-chloro-1H-imidazo[4,5-b]pyridin-2-yl)-N-(2,4-dichlorobenzyl) piperidin-3-amine], the EC50 (T. brucei; [1]) is reported as 1480 nM and the IC50 (MetRS (T. brucei)) is reported as 72 nM.
With `O=C(CCOc1ccc(Cl)cc1Cl)NCc1nc2ccc(F)cc2[nH]1` [Compound 1740, 3-(2,4-dichlorophenoxy)-N-((6-fluoro-1H-benzo[d]imidazol-2-yl)methyl)propanamide] the EC50 (T. brucei; [1]) was greater than 10000 nM and the IC50 (MetRS (T. brucei)) was 549 nM.
`Nc1nc(Cl)ccc1NC(=O)C1CN(C(=O)Cc2cc(Cl)cc(Cl)c2)CCN1` (stereo not shown) [Compound 1791, N-(2-amino-6-chloropyridin-3-yl)-4-(2-(3,5-dichlorophenyl)acetyl) piperazine-2-carboxamide] was tested, and the EC50 (T. brucei; [1]) was greater than 20000 nM and the IC50 (MetRS (T. brucei)) was 8480 nM.
In the case of `O=C1CN(Cc2ccc(Cl)cc2Cl)CCN1Cc1nc2ccccc2[nH]1` [Compound 1747, 1-((1H-benzo[d]imidazol-2-yl)methyl)-4-(2,4-dichlorobenzyl)piperazin-2-one], the EC50 (T. brucei; [1]) is reported as greater than 10000 nM and the IC50 (MetRS (T. brucei)) is reported as greater than 10000 nM.
Work on `Clc1ccc(Cn2cc(Cc3nc4ccccc4[nH]3)nn2)c(Cl)c1` [Compound 1752, 2-((1-(2,4-dichlorobenzyl)-1H-1,2,3-triazol-4-yl)methyl)-1H-benzo[d]imidazole] yielded an EC50 (T. brucei; [1]) greater than 10000 nM and an IC50 (MetRS (T. brucei)) of 1360 nM.
In the case of `Clc1cc(Cl)cc(NC[C@H]2CCCN(c3nc4nc(Cl)ccc4[nH]3)C2)c1` [Compound 1922, (R)-3,5-dichloro-N-((1-(5-chloro-1H-imidazo[4,5-b]pyridin-2-yl)piperidin-3-yl)methyl)aniline], the EC50 (T. brucei; [1]) is reported as 2760 nM and the IC50 (MetRS (T. brucei)) is reported as 140 nM.
`COc1ccc(Oc2cccc(NCc3nc4ccccc4[nH]3)n2)c(Cl)c1` [Compound 1924, N-((1H-benzo[d]imidazol-2-yl)methyl)-6-(2-chloro-4-methoxyphenoxy)pyridin-2-amine] was tested, and the EC50 (T. brucei; [1]) was 3280 nM and the IC50 (MetRS (T. brucei)) was 165 nM.
For `COc1ccc(Oc2cccc(NCc3nc4ccccc4[nH]3)c2)c(Cl)c1` [Compound 1941, N-(1H-1,3-benzodiazol-2-ylmethyl)-3-(2-chloro-4-methoxyphenoxy)aniline], the EC50 (T. brucei; [1]) was 3130 nM and the IC50 (MetRS (T. brucei)) was 273 nM.
For `CN(Cc1nc2ccccc2[nH]1)C(=O)CCOc1ccc(Cl)cc1Cl` [Compound 1727, N-(1H-1,3-benzodiazol-2-ylmethyl)-3-(2,4-dichlorophenoxy)-N-methylpropanamide], the EC50 (T. brucei; [1]) was greater than 20000 nM and the IC50 (MetRS (T. brucei)) was 5090 nM.
Work on `O=C(Cc1cc(Cl)cc(Cl)c1)NCc1nc2ccc(Cl)cc2[nH]1` [Compound 1851, N-((6-chloro-1H-benzo[d]imidazol-2-yl)methyl)-2-(3,5-dichlorophenyl)acetamide] yielded an EC50 (T. brucei; [1]) of 3380 nM and an IC50 (MetRS (T. brucei)) of 81 nM.
